Results as given in patent publication US20050147754A1, “Zirconium complex useful in a CVD method and a thin film preparation method using the complex” (Saes Getters S.p.A., priority 2002, published 2005).

Test: TG-DTA in dry air versus argon gas (oxidative degradation)
Settings: onset of caloric value difference between dry air and argon gas, dDTA/dT, FIG. 3(b)

Row | Structure (SMILES) | temperature at which oxidation reaction occurred
1 | CC(C)C(=O)C=C([O][Zr]([O]C(=CC(=O)C(C)C)C(C)C)([O]C(=CC(=O)C(C)C)C(C)C)[O]C(=CC(=O)C(C)C)C(C)C)C(C)C [Zr(DIBM)4, zirconium tetrakis[diisobutyrylmethanate]] | about 130 °C
2 | CC(C)(C)C(=O)C=C(O)C(C)(C)C.CC(C)(C)C(=O)C=C(O)C(C)(C)C.CC(C)(C)C(=O)C=C(O)C(C)(C)C.CC(C)(C)C(=O)C=C(O)C(C)(C)C.[Zr] [Zr(DPM)4, zirconium tetrakis[dipivaloylmethanate]] | about 280 °C
